Assay results taken from patent publication US20130023501A1, “PHARMACEUTICAL COMPOSITION COMPRISING SOLVENT MIXTURE AND A VITAMIN D DERIVATIVE OR ANALOGUE” (LEO PHARMA A/S, priority 2009, published 2013).

Columns and labels:
[1] = one study, Hannuksela et al. 1975; cited from earlier work
[2] = Amount of MCT required to dissolve calcipotriol in a tested ointment composition; assay type: physicochemical
[3] = Skin penetration and permeation, Franz diffusion cells; assay type: in vitro ADME; details: addition of menthol to the composition; 21 hours; pig ear skin; FIG. 1
Description: To investigate the skin penetration and permeation of calcipotriol from compositions of the invention, a skin diffusion experiment was conducted. Full thickness skin from pig ears was used in the study. The ears were kept frozen at −18° C. before use. On the day prior to the experiment the ears were placed in a refrigerator (5±3° C.) for slow defrosting. On the day of the experiment, the hairs were removed using a veterinary hair trimmer. The skin was cleaned for subcutaneous fat using a scalpel and two pieces of skin were cut from each ear and mounted on Franz diffusion cells in a balanced order.
Static Franz-type diffusion cells with an available diffusion area of 3.14 cm^2 and receptor volumes ranging from 8.6 to 11.1 ml—were used in substantially the manner described by T. J. Franz, “The finite dose technique as a valid in vitro model for the study of percutaneous absorption in man”, in Current Problems in Dermatology, 1978, J. W. H. Mall (Ed.), Karger, Basel, pp. 58-68. The specific volume was measured and registered for each cell. A magnetic bar was placed in the receptor compartment of each cell. […]
The in vitro skin permeation of each test composition was tested in 6 replicates (i.e. n=6). […] A glass spatula was used for the application, and the residual amount of the composition was determined so as to give the amount of the composition actually applied on the skin. […]

| MCT required to completely dissolve calcipotriol [2] | skin permeation of calcipotriol [3] | Compound | number of irritant reactions to propylene glycol [1] |
| --- | --- | --- | --- |
| – | – | CC(O)CO (stereo not drawn) [propylene glycol] | 12.5% |
| about 50% | significant increase | C=C1/C(=C\C=C2/CCC[C@]3(C)[C@@H]([C@H](C)/C=C/[C@@H](O)C4CC4)CC[C@@H]23)C[C@@H](O)C[C@@H]1O [calcipotriol, Calcipotriol] | – |
